We go through four compounds from ChEMBL document CHEMBL1128031, “The design of dipeptide helical mimetics: the synthesis and biological activity of trisubstituted indanes” (Bioorg Med Chem Lett, 1994).

Peptide text beside a SMILES is read from it. * marks the point of attachment. Cbz = O=C(OCc1ccccc1)*

The target in one assay is Substance-P receptor (Homo sapiens, UniProt P25103). The assay is described as follows: Inhibition of [125I]BH-SP binding to tachykinin NK1 receptor in human IM-9 cells. It counts as cell-based.
Sequence of Substance-P receptor (P25103 whole entry): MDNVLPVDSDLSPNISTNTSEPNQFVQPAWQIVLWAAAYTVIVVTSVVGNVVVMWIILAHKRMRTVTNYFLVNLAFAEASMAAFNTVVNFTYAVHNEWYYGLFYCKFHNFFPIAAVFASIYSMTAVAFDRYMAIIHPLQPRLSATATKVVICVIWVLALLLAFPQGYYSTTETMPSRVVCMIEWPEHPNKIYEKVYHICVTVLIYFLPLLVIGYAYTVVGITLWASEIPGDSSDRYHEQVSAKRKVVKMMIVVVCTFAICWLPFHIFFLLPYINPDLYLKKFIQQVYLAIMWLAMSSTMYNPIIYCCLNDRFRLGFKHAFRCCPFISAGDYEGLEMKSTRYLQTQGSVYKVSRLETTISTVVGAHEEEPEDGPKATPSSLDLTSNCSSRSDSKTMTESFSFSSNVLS
In another assay the target is T1, Neuromedin-K receptor (Homo sapiens, UniProt P29371).
T1 sequence (P29371 whole entry): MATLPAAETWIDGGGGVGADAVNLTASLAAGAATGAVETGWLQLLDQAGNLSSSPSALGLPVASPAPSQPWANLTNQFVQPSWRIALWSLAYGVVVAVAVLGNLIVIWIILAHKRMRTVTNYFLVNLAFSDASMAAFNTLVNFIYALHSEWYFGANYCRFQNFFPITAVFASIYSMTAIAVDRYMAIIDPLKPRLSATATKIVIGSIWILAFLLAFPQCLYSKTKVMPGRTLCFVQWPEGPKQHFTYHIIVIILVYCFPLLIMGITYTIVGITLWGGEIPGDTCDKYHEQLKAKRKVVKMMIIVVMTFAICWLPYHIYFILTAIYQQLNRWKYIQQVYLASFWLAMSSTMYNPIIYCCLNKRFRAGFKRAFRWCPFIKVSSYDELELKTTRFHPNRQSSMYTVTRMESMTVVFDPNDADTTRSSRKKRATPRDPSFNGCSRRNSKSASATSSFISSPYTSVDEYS
The assay is described as follows: Inhibition of [125I][MePhe]-NKB binding to human Tachykinin receptor 3 in CHO cells. It counts as cell-based.

As usually defined, the IC50 is the midpoint of a concentration-inhibition curve. A high value points to a need for much substance. On to `COC(=O)C1(Cc2ccccc2)CCc2ccc(Cc3ccccc3)cc21` (stereo unspecified), for which the results for the IC50 at Substance-P receptor and at Neuromedin-K receptor were 3 µM and 8 µM, respectively. For `O=C(NCCc1ccccc1)C1(Cc2ccccc2)CCc2ccc(Cc3ccccc3)cc21` (stereo unspecified), in that order: 2.4 µM and 3 µM.

For `CC(C)(C)CNC(=O)C1(Cc2ccccc2)CCc2ccc(Cc3ccccc3)cc21` (stereo unspecified), the concentration for half-maximal inhibition (IC50) on Neuromedin-K receptor was 5.2 µM. The compound `NC(=O)[C@H](Cc1ccccc1)NC(=O)[C@H](Cc1c[nH]c2ccccc12)NC(=O)OCc1ccccc1` (Cbz-Trp-Phe-NH2) registered an IC50 on Substance-P receptor of 9.3 µM.
